“And” between values parts separate entries of the source, which are not always exact repeats. Equal entries are not always repeated. Where two headings read alike, the source gives them in different places.
Legend:
[1] = system: macrophages (peritoneal and J774A.1) and fibroblast cells; parameters: method as in PMID 33339081; conditions: ref [28]; cited from earlier work
[2] = Cytotoxicity test with MTT method in Vero cells; assay type: cell-based, African green monkey; conditions: African green monkey, 5 days, read-out: CC50 (50% cytotoxic concentration)
Procedure: (§1) The cytotoxicity of compounds 1–7 to Vero cells, an epithelial cell line derived from the kidney of an African green monkey, was tested using the 3-(4,5-dimethylthiazol-2-yl)-2,5-diphenyltetrazolium bromide (MTT) method. […] Based on CC20 values, which was the maximum concentration used for antiviral screening, 3b compound was the least toxic with a value of 527.2 µM. Compounds 2a and 2b were the most cytotoxic with values of 8.87 µM and 9.89 µM, respectively. […] The results from compounds 3a, 3b and 4a, 4b ranged from 40.69 to 527.20 µM. […] The presence of phthalimide group or sugar increases the values of CC20 and CC50 (Table 2 and Supplementary Material: Figure S1).
(§2) 96-well plates with 1 × 10^4 cell/well were used in this assay and prepared 24 h previously. The compounds were diluted in a 2:1 ratio so that a maximum of 0.8% DMSO was used. The concentrations used were 800, 400, 200, 100, 50, 25 and 12.5 µM. Dilutions were added to the wells in triplicate and incubated at 37 °C and 5% CO2 atmosphere. After 5 days, the wells were emptied and a 50 µL of 1 mg/mL MTT (3-(4,5-dimethylthiazol-2-yl)-2,5-diphenyltetrazolium bromide) (Sigma-Aldrich) solution was added, and the cells were incubated for 3–4 h for formation of formazan crystals through the mitochondria of viable cells. Then, medium was removed and 100 µL DMSO was added to the wells to solubilize the formazan crystals. With the aid of an incubator Tecnal TE-420 (Tecnal Equipamentos Científicos, Piracicaba, São Paulo, Brazil), the plates were homogenized at 120 RPM at 37 °C and the optical densities were read at 570 nm on a spectrophotometer BioTekTM ELx800TM (BioTek Instruments, Winooski, VT, USA).
(§3) The determination of the CC20 and CC50 values was obtained through the linear regression analysis of the XY graph generated by the values of the concentrations used in the test and the triplicate values of the viability. In the post-infection and pre-treatment tests, ANOVA and Dunnett tests were used, considering […] as the minimum significance value. All tests were performed in GraphPad Prism v.6.0 program (GraphPad Software, Inc., San Diego, CA, USA).

Vero cells [3] = assay: Cytotoxicity test with MTT method in Vero cells; assay type: cell-based, African green monkey; conditions: for CC20 (20% cytotoxic concentration): 5 days
Procedure: as §1, §2, §3

ZIKV = assay: Post-infection test with ZIKV in Vero cells; assay type: cell-based, Zika virus
Procedure: We then investigated the activity of compound 4b after ZIKV infection in cells. As already noted in the screening test, 4b reduced ZIKV growth to levels similar to 6MMPr, a positive control previously described by our group. As in the pre-treatment test, four different concentrations were used, with the maximum being CC20 (136.90, 68.45, 34.22 and 17.11 µM). […] It is worth highlighting the constant decrease in the viral titer, even in lower concentrations, while the positive control 6MMPr reduces it only in the highest concentrations.
Statistical analysis compared the concentrations of each compound at each collection time (3 d.p.i. and 5 d.p.i.) with a t-test.
Figure 6 Comparison of anti-ZIKV activity between 6MMPr and 4b after three- and five-days post-infection (d.p.i.). 6MMPr and compound 4b were submitted to a post-infection test when Vero cells was infected with ZIKV at MOI 0.1 for 2 h then treated with compounds. Concentrations used in the test corresponded to CC20 (4b = 136.90 µM; 6MMPr = 60.50 µM), CC20/2 (4b = 68.45 µM; 6MMPr = 30.25 µM), CC20/4 (4b = 34.22 µM; 6MMPr = 15.13 µM) and CC20/8 (4b = 17.11 µM; 6MMPr = 7.56 µM). The experiment was done in triplicates and values are the mean and the SD. Statistical analysis was made between compounds using t-test on GraphPad Prism program. * = significative; ns = not statistically significant for p < 0.05. (a) 3 d.p.i. from both compounds. (b) 5 d.p.i. from both compounds.
96-well plates with 1 × 10^4 cell/well were used in this assay and prepared 24 h previously. Seven serial dilutions of the virus were prepared in DMEM + 2% FBS culture medium. After removing the culture medium from the plate, 50 µL of each dilution was added to the wells in several repetitions. The plate was incubated at 37 °C and 5% atm CO2 for 1 h. After this interval, each well of the plate received an additional 100 µL of DMEM + 2% FBS culture medium. The plate was incubated again, in the same parameters, for 5 days. Some columns of the plate were selected for use as a cell control (culture medium only, no virus). The reading was performed in an inverted optical microscope AE2000, Motic (Motic, Kowloon Bay, Hong Kong) counting positives wells by the presence of cytopathic effect and the determination of the sample title was performed with the aid of the Microsoft Office Excel program (Microsoft® Office, Redmond, WA, USA).
48-well plates with 2.5 × 10^4 cells/well were prepared 24 h previously. A ZIKV solution at MOI 0.1 was inoculated into the wells and the cells incubated at 37 °C and 5% CO2 atmosphere. After 2 h, the culture medium was removed, and the wells were washed with 1X PBS. 2:1 dilution of 4b (136.90 µM, 68.45 µM, 34.22 µM and 17.11 µM) and 6MMPr (60.50 µM, 30.25 µM, 15.13 µM and 7.56 µM) were added in triplicate. The cells were again incubated for 72 h and 120 h. The supernatants from the wells were collected and titrated.

Vero cells [4] = system: Vero cells; parameters: method as in PMID 28803932; conditions: ref [17], cited from earlier work

| Structure (SMILES) | CC50 at 5 days [2] [µM] | CC20 (20% cytotoxic concentration) (Vero cells [3]) | other results |
| --- | --- | --- | --- |
| O=C1c2ccccc2C(=O)N1CCn1cc(-c2ccccc2)nn1 [4-phenyl-1-[2-(phthalimido-2-yl)ethyl]-1-H-1,2,3-triazole] |  |  | cytotoxicity [1]: low cytotoxicity |
| CC(C)(O)c1cn(CN2C(=O)c3ccccc3C2=O)nn1 [Compound 1] | 680 | 177.10 µM |  |
| O=C1C=C(n2cc(CCO)nn2)C(=O)c2ccccc21 [Compound 2a] | 38 | 8.87 µM |  |
| O=C1C=C(n2cc(CCCO)nn2)C(=O)c2ccccc21 [Compound 2b] | 38.8 | 9.89 µM |  |
| O=C1C=C(NCc2cn(CN3C(=O)c4ccccc4C3=O)nn2)C(=O)c2ccccc21 [Compound 3a] | 470 | 55.28 µM |  |
| O=C1C=C(NCc2cn(CCN3C(=O)c4ccccc4C3=O)nn2)C(=O)c2ccccc21 [Compound 3b] | 1190 | 527.2 µM and 527.20 µM |  |
| O=C1C(Br)=C(NCc2cn(CCCN3C(=O)c4ccccc4C3=O)nn2)C(=O)c2ccccc21 [Compound 4a] | 68.8 | 40.69 µM |  |
| O=C1C=C(NCCn2cc(CCCO)nn2)C(=O)c2ccccc21 [Compound 5a, 2-[2-(4-(3-Hydroxypropyl)-1H-1,2,3-triazol-1-yl)]-ethylamino-1,4-naphthoquinone] | 294 | 74.85 µM | concentration until which cells remain viable (Vero cells [3]): ≤ 400 µM; melting point: 143 to 145 °C |
| CC(C)(O)c1cn(CCNC2=CC(=O)c3ccccc3C2=O)nn1 [Compound 5b] | 298 | 66.93 µM | concentration until which cells remain viable (Vero cells [3]): ≤ 400 µM |
| CSc1ncnc2c1ncn2[C@@H]1O[C@H](CO)[C@@H](O)[C@H]1O [Compound 6MMPr, 6-methylmercaptopurine riboside, reference compound] |  |  | % Viral Inhibition (ZIKV; 3 d.p.i., CC20 (4b 136.90 µM; 6MMPr 60.50 µM)): 99.8%; % Viral Inhibition (ZIKV; 3 d.p.i., CC20/2 (4b 68.45 µM; 6MMPr 30.25 µM)): 54.4%; % Viral Inhibition (ZIKV; 3 d.p.i., CC20/4 (4b 34.23 µM; 6MMPr 15.13 µM)): 42.7%; % Viral Inhibition (ZIKV; 3 d.p.i., CC20/8 (4b 17.11 µM; 6MMPr 7.6 µM), negative = increased virus titer compared to control): −93.4 * %; % Viral Inhibition (ZIKV; 5 d.p.i., CC20 (4b 136.90 µM; 6MMPr 60.50 µM)): 99.7%; % Viral Inhibition (ZIKV; 5 d.p.i., CC20/2 (4b 68.45 µM; 6MMPr 30.25 µM)): 96.8%; % Viral Inhibition (ZIKV; 5 d.p.i., CC20/4 (4b 34.23 µM; 6MMPr 15.13 µM)): 95.1%; % Viral Inhibition (ZIKV; 5 d.p.i., CC20/8 (4b 17.11 µM; 6MMPr 7.6 µM)): 81.1%; % Viral Inhibition (ZIKV; post-infection test, Table 4, concentration and time not stated): 97.8%; IC50 (ZIKV; post-infection test, ZIKV MOI 0.1, Vero cells, read-out: IC50 (50% inhibition concentration, virus replication)): 24.5 µM; effect on growth of the virus (viral titer) (ZIKV; post-infection, four concentrations from CC20 to CC20/8, 3 and 5 d.p.i.): prevents the growth of the virus in both cases; SI (selectivity index) (ZIKV; ratio between the CC50 and IC50 values): 11.9; CC50 (Vero cells [4]; read-out: CC50 (50% cytotoxic concentration)): 291 µM; CC20 (20% cytotoxic concentration) (Vero cells [4]): 60.50 µM and 60.5 µM |
| CC(=O)OC[C@H]1O[C@H](OCCc2cn(C3=CC(=O)c4ccccc4C3=O)nn2)C=C[C@@H]1OC(C)=O [Compound 6a] | 68 | 39.92 µM |  |
| CC(=O)OC[C@H]1O[C@H](OCc2cn(C3=CC(=O)c4ccccc4C3=O)nn2)C=C[C@@H]1OC(C)=O [Compound 6b] | 48.7 | 21.18 µM |  |
| CC(=O)OC[C@H]1O[C@H](OC(C)(C)c2cn(C3=CC(=O)c4ccccc4C3=O)nn2)C=C[C@@H]1OC(C)=O [Compound 6c] | 58.1 | 25.73 µM |  |
| CC(=O)OC[C@H]1O[C@H](OCCCc2cn(C3=CC(=O)c4ccccc4C3=O)nn2)C=C[C@@H]1OC(C)=O [Compound 6d] | 69.5 | 38.61 µM |  |
| CC(=O)OCC1OC(n2cc(CNC3=C(Br)C(=O)c4ccccc4C3=O)nn2)C(OC(C)=O)C(OC(C)=O)C1OC(C)=O (centres unmarked) [Compound 7] | 334 | 119.10 µM |  |
